Values quoted from earlier work in patent US6743775B2, “Slow release formulations comprising anionic polysaccharide” (Alpenstock Holdings Limited, priority 1998, dated 2004).

Conditions: gelatine alone; Schwartz et al., Principles of Surgery 1979

gelatine
haemostatic effect: only displays a haemostatic effect after an addition of thrombin
